From patent US9090627B2 (priority 2012, dated 2015)

Columns and labels:
[1] = rat
[2] = human
mice = details: mouse, in vivo; cited from earlier work

Row | Compound | Skin penetration behavior (layer reached) [1] | Change in penetration with application time [2] | LD50 in mice (mice) [µg/kg]
1 | CCN1C[C@]2(COC)[C@H](O)C[C@H](OC)[C@@]34[C@@H]5C[C@@]6(O)[C@H](OC(=O)c7ccccc7)[C@@H]5[C@@](OC(C)=O)([C@@H]([C@H](OC)[C@H]23)[C@@H]14)[C@@H](O)[C@@H]6OC [aconitine] | Complete skin penetration | increased penetration occurring at 4 and 10 hours of application in comparison to 1 hour | 
2 | Batrachotoxin |  |  | 2
